Read-outs that look alike come from different tables or passages of the source.
Experiments:
Assay in all cases: SelectScreen Kinase Profiling, single point inhibition and IC50 for off-target kinases
Type in all cases: biochemical
off-target kinases [1] = target: T1, off-target kinases (Homo sapiens, UniProt P42681); conditions: TXK, ZLYTE, ATP Km app
T1 sequence (P42681 1-527): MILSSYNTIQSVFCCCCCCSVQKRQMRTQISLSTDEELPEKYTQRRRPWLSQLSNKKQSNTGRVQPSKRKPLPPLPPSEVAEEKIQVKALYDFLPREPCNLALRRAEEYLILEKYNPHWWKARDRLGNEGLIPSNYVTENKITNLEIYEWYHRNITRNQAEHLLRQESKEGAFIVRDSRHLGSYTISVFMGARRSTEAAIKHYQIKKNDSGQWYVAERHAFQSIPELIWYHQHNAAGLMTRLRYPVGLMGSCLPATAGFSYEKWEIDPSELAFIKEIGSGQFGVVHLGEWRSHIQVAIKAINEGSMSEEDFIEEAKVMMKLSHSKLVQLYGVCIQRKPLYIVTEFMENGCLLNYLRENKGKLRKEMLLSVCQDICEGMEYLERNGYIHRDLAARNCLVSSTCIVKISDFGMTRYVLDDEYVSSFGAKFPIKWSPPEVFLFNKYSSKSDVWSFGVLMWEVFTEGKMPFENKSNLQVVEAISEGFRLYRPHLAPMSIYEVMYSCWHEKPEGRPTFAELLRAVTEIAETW

off-target kinases [2] = target: off-target kinases (Homo sapiens, UniProt Q9NY57); conditions: STK32B (YANK2), LanthaScreen Binding
off-target kinases [3] = target: off-target kinases (Homo sapiens, UniProt Q00535)
off-target kinases [4] = target: off-target kinases (Homo sapiens, UniProt Q9UBF8); conditions: PI4KB (PI4K beta), Adapta, ATP Km app
off-target kinases [5] = target: off-target kinases (Homo sapiens, UniProt Q13555); conditions: CAMK2G (CaMKII gamma), LanthaScreen Binding
off-target kinases [6] = target: off-target kinases (Homo sapiens, UniProt P45983); conditions: MAPK8 (JNK1)
off-target kinases [7] = target: off-target kinases (Homo sapiens, UniProt P17252); conditions: PRKCA (PKC alpha), ZLYTE, ATP Km app
off-target kinases [8] = target: off-target kinases (Homo sapiens, UniProt Q9UK32); conditions: RPS6KA6 (RSK4), ZLYTE, ATP Km app
off-target kinases [9] = target: off-target kinases (Homo sapiens, UniProt Q96RR4); conditions: CAMKK2 (CaMKK beta), LanthaScreen Binding
off-target kinases [10] = target: off-target kinases (Homo sapiens, UniProt P36888); conditions: FLT3, ATP Km app, ZLYTE
Sequence of off-target kinases (Homo sapiens, UniProt P36888) (P36888 27-993): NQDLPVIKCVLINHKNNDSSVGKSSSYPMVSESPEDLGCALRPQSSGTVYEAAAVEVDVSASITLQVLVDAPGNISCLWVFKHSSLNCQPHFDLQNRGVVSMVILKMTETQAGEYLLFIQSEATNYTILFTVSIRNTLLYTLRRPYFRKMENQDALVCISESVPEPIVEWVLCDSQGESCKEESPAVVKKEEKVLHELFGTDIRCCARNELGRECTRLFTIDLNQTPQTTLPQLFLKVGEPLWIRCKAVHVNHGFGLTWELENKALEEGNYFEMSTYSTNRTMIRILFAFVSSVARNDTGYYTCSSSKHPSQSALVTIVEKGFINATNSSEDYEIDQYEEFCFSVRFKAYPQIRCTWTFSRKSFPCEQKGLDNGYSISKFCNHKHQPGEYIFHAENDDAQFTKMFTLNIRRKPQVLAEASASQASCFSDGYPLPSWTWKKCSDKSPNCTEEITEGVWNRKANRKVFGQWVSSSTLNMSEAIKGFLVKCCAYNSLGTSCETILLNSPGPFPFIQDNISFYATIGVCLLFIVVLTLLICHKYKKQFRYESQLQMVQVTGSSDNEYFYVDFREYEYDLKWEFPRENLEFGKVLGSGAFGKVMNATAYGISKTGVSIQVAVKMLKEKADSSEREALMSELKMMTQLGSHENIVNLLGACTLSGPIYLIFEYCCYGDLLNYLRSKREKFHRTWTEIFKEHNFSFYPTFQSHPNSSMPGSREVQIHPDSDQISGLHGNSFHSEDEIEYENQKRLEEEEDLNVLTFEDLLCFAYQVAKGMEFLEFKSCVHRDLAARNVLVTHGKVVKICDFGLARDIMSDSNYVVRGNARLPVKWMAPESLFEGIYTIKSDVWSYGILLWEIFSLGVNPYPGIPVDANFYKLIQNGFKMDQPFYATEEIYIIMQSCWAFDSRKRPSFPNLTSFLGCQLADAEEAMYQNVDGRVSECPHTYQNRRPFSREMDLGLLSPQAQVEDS

Sequence of off-target kinases (Homo sapiens, UniProt Q9NY57) (Q9NY57 whole entry): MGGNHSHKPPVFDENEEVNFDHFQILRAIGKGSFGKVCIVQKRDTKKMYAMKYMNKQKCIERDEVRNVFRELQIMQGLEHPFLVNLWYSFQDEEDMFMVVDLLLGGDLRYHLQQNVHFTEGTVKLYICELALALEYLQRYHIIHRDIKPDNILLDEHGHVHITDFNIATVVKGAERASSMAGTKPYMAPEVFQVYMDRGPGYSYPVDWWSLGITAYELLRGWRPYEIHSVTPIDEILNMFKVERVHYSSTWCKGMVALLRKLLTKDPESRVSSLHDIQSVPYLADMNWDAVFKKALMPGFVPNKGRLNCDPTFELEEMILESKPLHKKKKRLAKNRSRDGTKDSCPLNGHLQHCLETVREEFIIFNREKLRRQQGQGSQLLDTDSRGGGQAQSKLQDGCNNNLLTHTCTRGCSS
Sequence of off-target kinases (Homo sapiens, UniProt Q96RR4) (Q96RR4 whole entry): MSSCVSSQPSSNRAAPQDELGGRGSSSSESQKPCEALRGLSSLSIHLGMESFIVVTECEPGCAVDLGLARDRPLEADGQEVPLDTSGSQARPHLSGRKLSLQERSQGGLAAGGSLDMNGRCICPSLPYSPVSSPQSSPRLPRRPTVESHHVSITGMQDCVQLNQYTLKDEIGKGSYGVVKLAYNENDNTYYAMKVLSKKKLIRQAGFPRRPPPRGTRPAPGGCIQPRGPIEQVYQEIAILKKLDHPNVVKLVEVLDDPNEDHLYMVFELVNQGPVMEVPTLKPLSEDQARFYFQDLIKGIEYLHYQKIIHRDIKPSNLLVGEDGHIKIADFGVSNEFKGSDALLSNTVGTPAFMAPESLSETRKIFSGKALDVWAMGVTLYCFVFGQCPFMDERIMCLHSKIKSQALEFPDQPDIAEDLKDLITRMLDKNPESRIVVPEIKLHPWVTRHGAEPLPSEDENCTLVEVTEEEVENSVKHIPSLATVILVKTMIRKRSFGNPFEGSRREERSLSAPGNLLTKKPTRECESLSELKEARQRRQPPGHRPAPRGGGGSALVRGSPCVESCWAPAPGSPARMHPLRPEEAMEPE
Sequence of off-target kinases (Homo sapiens, UniProt Q00535) (Q00535 whole entry): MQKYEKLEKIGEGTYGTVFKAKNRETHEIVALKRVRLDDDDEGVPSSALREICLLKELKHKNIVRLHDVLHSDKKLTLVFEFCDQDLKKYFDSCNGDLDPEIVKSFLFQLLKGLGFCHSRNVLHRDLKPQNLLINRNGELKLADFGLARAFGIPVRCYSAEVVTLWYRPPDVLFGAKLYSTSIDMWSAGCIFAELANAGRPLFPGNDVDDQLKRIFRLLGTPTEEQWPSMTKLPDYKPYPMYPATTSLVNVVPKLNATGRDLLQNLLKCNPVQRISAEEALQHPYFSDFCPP
Sequence of off-target kinases (Homo sapiens, UniProt Q9UBF8) (Q9UBF8 whole entry): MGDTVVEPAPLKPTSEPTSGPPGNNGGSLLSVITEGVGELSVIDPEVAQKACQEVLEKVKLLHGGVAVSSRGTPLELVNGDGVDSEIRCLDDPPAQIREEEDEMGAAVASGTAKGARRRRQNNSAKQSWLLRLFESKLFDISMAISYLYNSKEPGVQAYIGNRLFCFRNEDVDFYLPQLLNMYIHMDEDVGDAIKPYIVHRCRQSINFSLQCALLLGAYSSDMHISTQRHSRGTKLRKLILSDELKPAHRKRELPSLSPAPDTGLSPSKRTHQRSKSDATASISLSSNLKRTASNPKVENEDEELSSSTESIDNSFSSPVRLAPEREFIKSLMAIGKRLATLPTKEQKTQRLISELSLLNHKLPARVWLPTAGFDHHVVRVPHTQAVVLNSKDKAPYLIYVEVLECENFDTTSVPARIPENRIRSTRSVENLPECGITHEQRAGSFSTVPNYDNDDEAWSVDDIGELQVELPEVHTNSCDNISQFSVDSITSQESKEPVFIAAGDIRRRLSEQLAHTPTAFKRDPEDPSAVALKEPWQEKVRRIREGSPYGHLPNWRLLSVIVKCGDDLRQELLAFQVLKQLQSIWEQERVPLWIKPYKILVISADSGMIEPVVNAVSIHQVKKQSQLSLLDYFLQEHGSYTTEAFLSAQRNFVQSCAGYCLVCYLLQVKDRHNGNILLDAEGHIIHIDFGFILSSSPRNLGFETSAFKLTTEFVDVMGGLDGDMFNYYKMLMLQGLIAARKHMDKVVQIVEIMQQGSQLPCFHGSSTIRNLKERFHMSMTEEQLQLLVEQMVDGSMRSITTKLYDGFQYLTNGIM
Sequence of off-target kinases (Homo sapiens, UniProt Q9UK32) (Q9UK32 whole entry): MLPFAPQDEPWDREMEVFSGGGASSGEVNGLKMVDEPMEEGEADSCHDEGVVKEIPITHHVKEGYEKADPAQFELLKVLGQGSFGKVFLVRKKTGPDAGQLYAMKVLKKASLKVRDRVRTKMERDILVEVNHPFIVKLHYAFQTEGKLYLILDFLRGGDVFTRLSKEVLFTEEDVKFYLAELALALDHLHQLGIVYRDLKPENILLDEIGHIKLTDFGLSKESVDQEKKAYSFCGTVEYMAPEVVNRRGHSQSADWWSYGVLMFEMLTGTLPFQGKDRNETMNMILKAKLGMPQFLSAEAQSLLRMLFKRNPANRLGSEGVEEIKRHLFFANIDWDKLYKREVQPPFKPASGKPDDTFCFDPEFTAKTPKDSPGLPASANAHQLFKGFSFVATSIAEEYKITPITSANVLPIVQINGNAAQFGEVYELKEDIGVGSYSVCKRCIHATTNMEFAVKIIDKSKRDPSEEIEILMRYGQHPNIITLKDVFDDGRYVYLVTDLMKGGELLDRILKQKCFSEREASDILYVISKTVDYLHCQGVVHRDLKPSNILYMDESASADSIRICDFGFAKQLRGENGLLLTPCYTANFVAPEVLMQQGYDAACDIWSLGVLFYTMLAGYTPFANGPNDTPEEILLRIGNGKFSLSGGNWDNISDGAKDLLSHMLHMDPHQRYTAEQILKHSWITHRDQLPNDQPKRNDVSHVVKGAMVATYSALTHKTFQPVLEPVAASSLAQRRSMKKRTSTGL
Sequence of off-target kinases (Homo sapiens, UniProt P45983) (P45983 whole entry): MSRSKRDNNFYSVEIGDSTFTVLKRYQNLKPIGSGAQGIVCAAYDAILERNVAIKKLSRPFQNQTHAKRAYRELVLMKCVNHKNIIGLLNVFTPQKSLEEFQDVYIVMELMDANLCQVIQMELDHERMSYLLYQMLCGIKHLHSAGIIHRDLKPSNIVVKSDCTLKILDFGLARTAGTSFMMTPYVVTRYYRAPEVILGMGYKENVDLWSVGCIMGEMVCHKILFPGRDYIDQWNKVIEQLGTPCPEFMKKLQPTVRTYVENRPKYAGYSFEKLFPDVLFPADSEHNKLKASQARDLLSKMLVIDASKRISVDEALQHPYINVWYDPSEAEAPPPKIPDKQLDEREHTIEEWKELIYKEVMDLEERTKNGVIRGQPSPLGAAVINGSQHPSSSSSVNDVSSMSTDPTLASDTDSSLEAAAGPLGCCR

For `N#Cc1cc(-c2ncnc(Nc3ccc(N4CCN(C5COC5)CC4)cc3)n2)ccc1OC1CCOCC1` [Compound 1, 5-(4-((4-(4-(oxetan-3-yl)piperazin-1-yl)phenyl)amino)-1,3,5-triazin-2-yl)-2-((tetrahydro-2H-pyran-4-yl)oxy)benzonitrile], the inhibition (off-target kinases [1]; read-out: % Inhibition 1) was 27%, the inhibition (off-target kinases [1]; read-out: % Inhibition 2) was 36% and the inhibition (off-target kinases [1]; read-out: % Inhibition Avg) was 31%. It also gave an inhibition (off-target kinases [2]; read-out: % Inhibition 1) of 1%, an inhibition (off-target kinases [2]; read-out: % Inhibition 2) of 8% and an inhibition (off-target kinases [2]; read-out: % Inhibition Avg) of 5%. For the same molecule, the inhibition (off-target kinases [3]; CDK5 (Inactive), LanthaScreen Binding, read-out: % Inhibition 1) was 1%, the inhibition (off-target kinases [3]; CDK5 (Inactive), LanthaScreen Binding, read-out: % Inhibition 2) was -2% and the inhibition (off-target kinases [3]; CDK5/p25, ZLYTE, ATP Km app, read-out: % Inhibition 1) was 3%. For the same molecule, the inhibition (off-target kinases [3]; CDK5/p25, ZLYTE, ATP Km app, read-out: % Inhibition 2) was 1%, the inhibition (off-target kinases [3]; CDK5/p25, ZLYTE, ATP Km app, read-out: % Inhibition Avg) was 2% and the inhibition (off-target kinases [3]; CDK5/p35, ZLYTE, ATP Km app, read-out: % Inhibition 1) was 7%. It also gave an inhibition (off-target kinases [3]; CDK5/p35, ZLYTE, ATP Km app, read-out: % Inhibition 2) of 2%, an inhibition (off-target kinases [3]; CDK5/p35, ZLYTE, ATP Km app, read-out: % Inhibition Avg) of 5% and an inhibition (off-target kinases [3]; read-out: % Inhibition Avg) of -1%. The inhibition (off-target kinases [4]; read-out: % Inhibition 1) was 7%, the inhibition (off-target kinases [4]; read-out: % Inhibition 2) was 3% and the inhibition (off-target kinases [4]; read-out: % Inhibition Avg) was 5%. It also gave an inhibition (off-target kinases [5]; read-out: % Inhibition 1) of 18%, an inhibition (off-target kinases [5]; read-out: % Inhibition 2) of 19% and an inhibition (off-target kinases [5]; read-out: % Inhibition Avg) of 18%. For the same molecule, the inhibition (off-target kinases [6]; LanthaScreen Binding, read-out: % Inhibition 1) was 57%, the inhibition (off-target kinases [6]; LanthaScreen Binding, read-out: % Inhibition 2) was 56% and the inhibition (off-target kinases [6]; LanthaScreen Binding, read-out: % Inhibition Avg) was 57%. The inhibition (off-target kinases [6]; ZLYTE, ATP 100, read-out: % Inhibition 1) was 33%, the inhibition (off-target kinases [6]; ZLYTE, ATP 100, read-out: % Inhibition 2) was 18% and the inhibition (off-target kinases [6]; ZLYTE, ATP 100, read-out: % Inhibition Avg) was 25%. It also gave an inhibition (off-target kinases [7]; read-out: % Inhibition 1) of 0%, an inhibition (off-target kinases [7]; read-out: % Inhibition 2) of -5% and an inhibition (off-target kinases [7]; read-out: % Inhibition Avg) of -2%. The inhibition (off-target kinases [8]; read-out: % Inhibition 1) was 14%, the inhibition (off-target kinases [8]; read-out: % Inhibition 2) was 17% and the inhibition (off-target kinases [8]; read-out: % Inhibition Avg) was 16%. It also gave an inhibition (off-target kinases [9]; read-out: % Inhibition 1) of 7%, an inhibition (off-target kinases [9]; read-out: % Inhibition 2) of 9% and an inhibition (off-target kinases [9]; read-out: % Inhibition Avg) of 8%. The inhibition (off-target kinases [10]; read-out: % Inhibition 1) was 42%, the inhibition (off-target kinases [10]; read-out: % Inhibition 2) was 49% and the inhibition (off-target kinases [10]; read-out: % Inhibition Avg) was 45%.
